In patent publication US11364231B2, “Methods of treating radiation induced gastrointestinal syndrome (RIGS) and related disease states using YEL002/BCN057” (priority 2017, dated 2022):
Entries after “also recorded” stand apart in the source; their conditions may differ.

How the values were obtained:
[1] = system: HEK293 cells having TCF/LEF luciferase reporter construct; assay: TCF/LEF (Topflash) reporter assay; type: cell-based, human; settings: graded doses of BCN057 vs vehicle control, 24 hr
Description: To determine the canonical WNT activity of BCN057 HEK293 cells (Signosis, Santa Clara, Calif.) having TCF/LEF luciferase reporter construct were treated with BCN057 or vehicle control or PBS. LiCl (10 mM) treatment was used as positive control for luciferase activity. Luciferase activity was determined 24 hr after using Dual-Luciferase Reporter Assay System (Promega) as per manufacturer's protocol. HEK293 cells having FOPFLASH construct (mutated TCF/LEF-binding site) were used as negative control. HEK293 (human embryonic kidney) cell line was routinely characterized in the lab based on morphology and gene-expression patterns. Cells were confirmed to be free of mycoplasma contamination.

MC38 colon tumor = MC38 colon tumor in the flank with AIR; type: in vivo, mice
Text: FIG. 18. […] I) Schematic diagram of BCN057 treatment in C57B16 mice having MC38 colon tumor in the flank. Mice were exposed to AIR (15Gy) and then treated with BCN057 at 24 hrs post exposure. Ii) Representative image of C57B16 mice having MC38 colon tumor in the flank. Note reduction in tumor size in irradiated or un-irradiated tumor treated with BCN057 at day 20 post AIR. Mice exposed to AIR without BCN057 treatment are not part of this image as they died within day 15 post AIR.
Subcutaneous tumors were developed by injecting MC38 colon cancer cell in the flank. Mice with palpable, subcutaneous tumor were treated with AIR (16Gy) followed by eight doses of BCN057. AIR reduced the tumor growth but invariably produced 100% mortality of animals with a median survival time of 14+2 days.
Mice were injected subcutaneously with 1×105 MC38 (colon carcinoma cell line) cells on the flank, respectively. About 10 days later, the tumor became palpable (3-5 mm in diameter), whereupon abdominal irradiation 16 Gy was delivered. Mice were divided into 4 groups (n=10/group) receiving no treatment, AIR, BCN057 and BCN057 plus AIR. Animals received BCN057 eight times starting 24 hrs after AIR. Tumor measurements were performed thrice weekly using Vernier calipers along with simultaneous physical assessment of signs of systemic toxicity (malaise and diarrhea).

[2] = system: intestinal crypt organoids from Lgr5/EGFP-IRES-Cre-ERT2 knock in mice; assay: Ex vivo irradiated mouse intestinal crypt organoids; type: cell-based
Text: To analyze the effect of BCN057 on ISC population, an ex vivo primary intestinal culture system exposed to graded doses of irradiation was developed. Intestinal crypt isolated from Lgr5/EGFP-IRES-Cre-ERT2 knock in mice to allow the visualization of the ISCs. At a dose level of 8 Gy most of the Lgr5+ve ISCs had disappeared within 48 hrs resulting significant loss of budding crypt with changes in existing crypt morphology indicating inhibition of ISC growth and differentiation in response to radiation exposure. […] A representative microscopic image of effect of BCN057 on budding crypt having Lgr5+ve ISCs (GFP+ve cells indicated with arrow) is shown in FIG. 10.
Small intestine from Lgr5-GFP mice, or their littermates control mice was used for crypt isolation and development of ex vivo organoid culture. The tissue was scraped for removing villi and chopped into˜5 mm pieces. Then tissue was washed with cold PBS, and incubated in dissociation buffer for 20 mins in rotor at room temperature. The tissue fragments were suspended vigorously with a 10-ml pipette in cold 0.1% BSA in PBS, yielding supernatants enriched in epithelial cells. […] The number of organoids per well was counted on microscopic images. […] Total number of crypt structures and number of budding crypts were counted and expressed as a ratio of budding crypts/total crypt structure.

[3] = Solubility in aqueous formulations; type: physicochemical
Description: In another embodiment formulation for intravenous, subcutaneous and oral delivery of therapeutic levels of Yel002/BCN057 were developed comprising 30 wt % Captisol (SBE-beta-CD) and 100 mM MSA at pH 4.1 or higher (adjusted with 1.0 N NaOH).

[4] = system: nuclear β-catenin in crypt epithelial cells; assay: β-Catenin immunohistochemistry of mouse jejunum; type: in vivo, mice; settings: BCN057 at 24 hrs post AIR vs irradiated untreated animals
Description: The effect of BCN057 was analyzed in crypt epithelial β-catenin activation. […] Nuclear β-catenin positive cells were primarily observed in crypt bottom which is also location for ISCs indicating activation of WNT-β-catenin signaling in ISCs.
β-Catenin immunohistochemistry was performed in paraffin-embedded sections of mouse jejunum (56). Before immunostaining antigen retrieval was performed by heating slides in […] at 100° C. for 20 min in a microwave oven at 500 W using antigen retrieval solution (10 mM Tris and 1 mM EDTA, pH 9.0). Non-specific antibody binding was blocked for 20 min. by incubation with 0.05% w/v BSA in PBS. Tissue was stained using the anti-β-catenin antibody (1:100 dilution; BD Transduction Laboratories, Franklin Lakes, N.J.; #610154) at room temperature for 2 hr followed by staining with horseradish peroxidase-conjugated Anti-Mouse Antibody (Dako, Denmark) at room temperature for 1 hr. Peroxidase activity was detected by adding DAB substrate. Nucleus was counter-stained with haematoxylin (blue). β-Catenin-positive nucleus (stained dark brown) was calculated from 15 crypts per field, 5 fields per mice.

COc1ccc2cc(-c3nc4ccc(C)cn4c3NCc3ccco3)c(=O)[nH]c2c1 [BCN057, 3-(3((furan-2-ylmethyl)ammo)-6-methylimidazo[1,2-a]pyridine-2-yl)-6-methoxyquinolin-2(1H)-one]
Luciferase activity (WNT activity) [1]: significant increase; also recorded: higher Luciferase activity; also recorded: strong WNT activity
mice surviving beyond 30 days (MC38 colon tumor; AIR (16Gy) followed by eight doses of BCN057, AIR alone 100% mortality, n=10): 75%
tumor growth (MC38 colon tumor; AIR + BCN057 vs un-irradiated untreated control): significant tumor growth retardation; also recorded: significant reduction of tumor growth
tumor growth (MC38 colon tumor; BCN057 in un-irradiated mice vs un-irradiated untreated control): reduces the tumor growth
survival time (MC38 colon tumor; BCN057 post AIR vs AIR alone): significant improvement in survival time
organoid growth / ratio of budding crypt to total crypt ([2]; 8 Gy, BCN057 10 uM at 1 hr after irradiation): restored the number of budding crypts to un-irradiated levels; also recorded: improved the organoid growth
Lgr5+ve ISCs in organoids ([2]; 8Gy, BCN057 treated vs irradiated control): recused Lgr5+ve ISCs; also recorded: increases the presence of Lgr5+ve cells
solubility ([3]; 30 wt % Captisol (SBE-beta-CD) and 100 mM MSA, at up to pH 4.1 or higher): excellent solubility
solubility in aqueous solution ([3]; physiologically compatible pHs, 100 mM MSA/10% PVP, 100 mM MSA/2% benzyl alcohol/2% NMP, 100 mM MSA/10% ethanol/1% Poloxamer 188): solubalized
nuclear β-catenin positive cells [4]: significant increase; also recorded: more nuclear β-catenin staining
